Tests used:
Dbp6 [1] = target: T1, Dbp6 (Saccharomyces cerevisiae, UniProt P53734); experiment: RNA strand annealing assay (ss38-mer / ss58-mer), effect of nucleotide; format: biochemical; settings: 5 mM ADP, 0.25 μM protein, MgCl2 2.5 mM, pH 8, 30°C; indirect read-out
T1 construct: full-length ORF, His6 tag (modified pET-15b, pET-Dbp6), kept; E. coli Rosetta λDE3; ca. 73 kDa; size exclusion fraction, mainly monomer / dimer
T1 sequence (P53734 1-629): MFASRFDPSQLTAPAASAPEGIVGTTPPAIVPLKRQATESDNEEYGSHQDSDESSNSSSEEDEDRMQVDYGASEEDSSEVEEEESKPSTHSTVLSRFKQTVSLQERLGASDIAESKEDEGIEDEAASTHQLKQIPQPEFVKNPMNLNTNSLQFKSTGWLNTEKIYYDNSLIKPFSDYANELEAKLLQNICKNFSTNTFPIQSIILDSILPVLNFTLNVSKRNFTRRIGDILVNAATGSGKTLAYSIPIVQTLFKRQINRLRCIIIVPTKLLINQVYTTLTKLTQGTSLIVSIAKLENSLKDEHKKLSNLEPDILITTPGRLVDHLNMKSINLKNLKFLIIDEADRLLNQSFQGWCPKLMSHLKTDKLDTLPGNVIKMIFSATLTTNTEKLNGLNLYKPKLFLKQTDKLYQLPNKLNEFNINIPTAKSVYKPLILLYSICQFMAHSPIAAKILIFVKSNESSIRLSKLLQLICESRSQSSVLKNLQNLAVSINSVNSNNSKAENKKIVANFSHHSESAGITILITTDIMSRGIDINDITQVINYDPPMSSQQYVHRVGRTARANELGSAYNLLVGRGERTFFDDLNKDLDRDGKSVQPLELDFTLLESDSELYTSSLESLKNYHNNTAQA

Dbp6 [2] = target: T1, Dbp6; experiment: EMSA, effect on Dbp6 binding to hemi-duplex RNA ds38/[…]; settings: 0.5-5 mM nucleotide, 0.5 μM protein, 1 nM RNA, MgCl2 2.5 mM, pH 8, 30°C; indirect read-out
Dbp6 [3] = target: T1, Dbp6; experiment: ATPase assay, TLC of [α-32P]-ADP; format: biochemical; settings: 100 μM ATP, 0.8 μM protein, 2 μM ss58-mer RNA, MgCl2 2.5 mM, pH 8, 30°C; trace E. coli ATPase not excluded by the authors
Dbp6 [4] = target: T2, Dbp6 (Saccharomyces cerevisiae, UniProt P53734 1-629); experiment: EMSA; high affinity; no nucleotide; EMSA: 1 nM 32P-RNA, RB 1x (composition not in the material), RNasin, 15 min at 30 C, native PAGE in TBE; bridging: 0.8 uM Dbp6, RB 1x, 15 min at 30 C; settings: protein: recombinant; tags: N-terminal His6; label: 32P on ss38-mer; 3' overhang 20 nt on strand 1; 38 bp region with one C-C mismatch
T2 sequence: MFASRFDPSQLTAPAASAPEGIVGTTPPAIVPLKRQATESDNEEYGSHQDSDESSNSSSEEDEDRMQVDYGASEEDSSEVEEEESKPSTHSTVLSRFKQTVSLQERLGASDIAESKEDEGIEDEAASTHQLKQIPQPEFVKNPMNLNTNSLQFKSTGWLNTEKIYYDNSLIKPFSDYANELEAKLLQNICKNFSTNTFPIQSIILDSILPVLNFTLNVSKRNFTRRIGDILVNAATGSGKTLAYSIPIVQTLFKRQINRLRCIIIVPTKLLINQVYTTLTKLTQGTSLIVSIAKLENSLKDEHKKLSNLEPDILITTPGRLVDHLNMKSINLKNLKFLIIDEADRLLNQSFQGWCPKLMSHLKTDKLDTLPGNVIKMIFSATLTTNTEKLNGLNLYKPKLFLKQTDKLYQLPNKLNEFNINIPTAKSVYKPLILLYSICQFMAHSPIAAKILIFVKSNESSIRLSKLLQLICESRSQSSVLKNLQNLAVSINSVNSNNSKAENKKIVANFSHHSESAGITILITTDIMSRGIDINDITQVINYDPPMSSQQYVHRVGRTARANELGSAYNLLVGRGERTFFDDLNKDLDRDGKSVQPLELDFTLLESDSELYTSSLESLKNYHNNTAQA

Nc1ncnc2c1ncn2[C@@H]1O[C@H](COP(=O)(O)OP(=O)(O)O)[C@@H](O)[C@H]1O [ADP]
RNA strand annealing assay (ss38-mer / ss58-mer), effect of nucleotide (Dbp6 [1]): In contrast, ADP addition increased the annealing activity of Dbp6.

Nc1ncnc2c1ncn2[C@@H]1O[C@H](COP(=O)(O)OP(=O)(O)OP(O)(O)=S)[C@@H](O)[C@H]1O [ATPγS]
EMSA, effect on Dbp6 binding to hemi-duplex RNA ds38/58 (Dbp6 [2]): ATPγS had an even stronger effect on Dbp6 binding to the hemi-duplex than ATP.

Nc1ncnc2c1ncn2[C@@H]1O[C@H](COP(=O)(O)OP(=O)(O)OP(=O)(O)O)[C@@H](O)[C@H]1O [ATP]
ATPase assay, TLC of [α-32P]-ADP (Dbp6 [3]): This ATPase activity could be attributed to Dbp6

B1: ds38/58 hemi-duplex (dsRNA)
RNA 1: GGGAGACCGGAAUUCAUCAUUUCAGUGUAGCGGUUCUGACGUGCAAAUCGAUCGUCGA
RNA 2: CAGAACCGCUACACUGAAAUGAUCAAUUCCGGUCUCCC
binding result (Dbp6 [4]): binds

Reference: PMC9881158, “The DEAD-box protein Dbp6 is an ATPase and RNA annealase interacting with the peptidyl transferase center (PTC) of the ribosome” (Nucleic Acids Research, 2023)
